Where a name gives a salt, the structure may show the parent alone.
How the values were obtained:
acetylcholinesterase = biological target: T1, acetylcholinesterase (Rattus norvegicus, UniProt P37136); experiment: biochemical; design: species or system Male Wistar rats
T1 construct: corpora striata dissected free, weighted and homogenized in 19 volumes; from tissue; host or cells: rat brain corpora striata, crude homogenate
T1 sequence (P37136 32-614): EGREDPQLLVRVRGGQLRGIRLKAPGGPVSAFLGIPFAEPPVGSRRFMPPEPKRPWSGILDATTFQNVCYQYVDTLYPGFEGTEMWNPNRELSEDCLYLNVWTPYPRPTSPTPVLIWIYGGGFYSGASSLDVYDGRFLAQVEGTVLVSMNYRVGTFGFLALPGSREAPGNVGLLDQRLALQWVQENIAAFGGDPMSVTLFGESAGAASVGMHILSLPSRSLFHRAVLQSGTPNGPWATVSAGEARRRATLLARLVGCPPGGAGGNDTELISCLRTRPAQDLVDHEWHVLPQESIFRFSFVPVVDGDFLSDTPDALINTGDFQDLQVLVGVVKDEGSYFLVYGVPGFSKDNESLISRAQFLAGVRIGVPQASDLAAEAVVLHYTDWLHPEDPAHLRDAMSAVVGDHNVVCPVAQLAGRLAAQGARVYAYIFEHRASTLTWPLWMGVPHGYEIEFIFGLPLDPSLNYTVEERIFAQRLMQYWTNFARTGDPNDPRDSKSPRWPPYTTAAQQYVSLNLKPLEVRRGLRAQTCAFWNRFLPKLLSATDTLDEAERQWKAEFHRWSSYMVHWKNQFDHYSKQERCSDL
Method: 0.05M Phosphate Buffer (pH 7.2)
A solution of monobasic sodium phosphate monohydrate (6.85 g) in distilled water (100 ml) is added to a solution of dibasic sodium phosphate heptahydrate (13.4 g) and distilled water (100 ml) until a pH of 7.2 was attained. The solution was diluted 1 to 10 with distilled water.
5,5-Dithiobisnitrobenzoic acid in Buffer
The 0.05M Phosphate Buffer (pH 7.2) was added to 5.5-dithiobisnitrobenzoic acid to a total volume of 100 ml, i.e., a quantity sufficient (gs) to 100 ml.
A 2 millimolar stock solution of the test drug is prepared in a quantity sufficient of either acetic acid or dimethyl sulfoxide to volume with 5,5-dithiobisnitrobenzoic acid in Buffer. […]
Male Wistar rats are decapitated, brains rapidly removed, corpora striata dissected free, weighted and homogenized in 19 volumes (approximately 7 mg protein/ml) of 0.05M Phosphate Buffer (pH 7.2) using a Potter-Elvejhem homogenizer. […] Enzyme activity is measured with a Beckman DU-50 spectrophotometer with the following software and instrument settings: • 1. […]
Blank values are determined for each run to control for non-enzymatic hydrolysis of substrate and these values are automatically subtracted by the Kindata program available on kinetics soft-pac module. This program also calculates the rate of absorbance change for each cuvette. […]
IC50 values are calculated from log-probit analysis

clonidine: α2-receptor = experiment: in vitro clonidine binding: α2-receptor assay; design: species or system Male Wistar rats; settings: rat cortical tissue homogenate; 3 nM 3H-clonidine; 20 minutes at 25° C; log-probit analysis; read-out: Inhibition of clonidine binding activity IC50
Method: The following reagents are prepared: 1.
[4-^3H]-Clonidine Hydrochloride (20-30 Ci/mmol) is obtained from New England Nuclear. […] Clonidine hydrochloride is obtained from Boehringer Ingelheim. A stock solution of 0.1 mM clonidine is made up to determine nonspecific binding. This yields a final concentration of 1 µM in the assay (20 µl to 2 ml). […] Test compounds. For most assays, a 1 mM stock solution is made up in a suitable solvent and serially diluted, such that the final concentration in the assay ranges from 10-^5 to 10-^8M.
Male Wistar rats are sacrificed by decapitation and the cortica tissue rapidly dissected. The tissue is homogenized in 50 volumes of 0.05 M Tris buffer, pH 7.7 (buffer 1b) with the Brinkman Polytron, then centrifuged at 40,000 g for 15 minutes. The supernatant is discarded and the pellet rehomogenized in the original volume of 0.05 M Tris buffer, pH 7.7 and recentrifuged as before. The supernate is discarded and the final pellet rehomogenized in 50 volumes of Buffer 2b. This tissue suspension is then stored on ice. The final tissue concentration is 10 mg/ml. […]
Tissue homogenates are incubated for 20 minutes at 25° C with 3 nM ^3H-clonidine and varying drug concentrations, then immediately filtered under reduced pressure on Whatman GF/B filters. […] Ten ml of liquescent counting solution is added to each sample which is then counted by liquid scintillation spectroscopy. […]

| Structure (SMILES) | IC50 (acetylcholinesterase) | IC50 (clonidine: α2-receptor) |
| --- | --- | --- |
| C#CCOc1cc(CN2CCN(c3ccccn3)CC2)ccc1OC [4-Methoxy-3-(propargyloxy)-1-[[4-(pyridin-2-yl)piperazin-1-yl]methyl] benzene hydrochloride monohydrate] | 26900 nM | 34.6 nM |
| C#CCOc1cc(CN2CCCC2)ccc1OC(=O)NC [reference compound] | 3.6 nM | – |
